Test results reported in ChEMBL document CHEMBL4371044, “Celastrol Promotes Weight Loss in Diet-Induced Obesity by Inhibiting the Protein Tyrosine Phosphatases PTP1B and TCPTP in the Hypothalamus” (J Med Chem, 2018).
Calls of active or inactive are those of the source. No cut-off for these calls is given here.

What was measured:
[1] = molecular target: T1, Tyrosine-protein phosphatase non-receptor type 2 (Homo sapiens) (UniProt P17706); assay: Inhibition of human N-terminal His6-tagged TCPTP catalytic domain (1 to 336 residues) expressed in Escherichia coli strain Rosetta2 (DE3) up to 500 uM using pNPP as substrate preincubated for 10 mins followed by substrate addition and measured after 10 mins by […]
T1 sequence (whole entry): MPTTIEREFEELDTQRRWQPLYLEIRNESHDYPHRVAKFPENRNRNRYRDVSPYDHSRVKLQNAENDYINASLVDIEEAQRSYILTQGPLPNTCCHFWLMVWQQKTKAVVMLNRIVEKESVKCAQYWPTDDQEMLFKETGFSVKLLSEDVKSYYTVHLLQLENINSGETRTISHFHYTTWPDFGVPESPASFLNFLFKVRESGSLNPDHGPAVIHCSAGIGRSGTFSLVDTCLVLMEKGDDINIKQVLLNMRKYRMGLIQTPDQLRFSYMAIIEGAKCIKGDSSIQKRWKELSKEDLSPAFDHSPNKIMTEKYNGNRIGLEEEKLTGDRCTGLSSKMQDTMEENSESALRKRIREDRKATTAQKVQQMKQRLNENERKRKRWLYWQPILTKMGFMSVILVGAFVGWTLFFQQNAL

[2] = molecular target: T2, Tyrosine-protein phosphatase non-receptor type 1 (Homo sapiens) (UniProt P18031); assay: Reversible inhibition of human N-terminal His6-tagged PTP1B catalytic domain (1 to 298 residues) expressed in Escherichia coli strain Rosetta2 (DE3) at 10 times IC50 using DiFMUP as substrate preincubated for 30 mins followed by 100 fold compound dilution and substrate addition measured for 60 mins fluorescence assay
T2 sequence (whole entry): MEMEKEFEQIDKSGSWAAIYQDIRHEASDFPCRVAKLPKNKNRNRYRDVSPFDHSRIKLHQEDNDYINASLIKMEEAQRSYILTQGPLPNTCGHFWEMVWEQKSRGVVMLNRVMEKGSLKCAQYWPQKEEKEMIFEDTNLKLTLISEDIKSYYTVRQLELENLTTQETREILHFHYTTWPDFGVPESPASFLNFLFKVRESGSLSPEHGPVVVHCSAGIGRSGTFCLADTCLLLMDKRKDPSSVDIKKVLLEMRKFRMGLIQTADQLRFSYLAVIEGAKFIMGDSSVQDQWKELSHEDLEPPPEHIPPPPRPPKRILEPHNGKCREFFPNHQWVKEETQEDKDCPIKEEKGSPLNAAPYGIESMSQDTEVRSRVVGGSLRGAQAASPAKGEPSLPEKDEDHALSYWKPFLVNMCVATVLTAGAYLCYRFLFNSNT

SMILES: CC1=C(O)C(=O)C=C2C1=CC=C1[C@@]2(C)CC[C@@]2(C)[C@@H]3C[C@](C)(C(=O)O)CC[C@]3(C)CC[C@]12C [CELASTROL]
- inhibition [1]: Active
- inhibition [2]: Active
